Legend:
[1] = Inhibition of human ClpP expressed in Escherichia coli SG1146 cells/His6-tagged TEV-fused human ClpX expressed in Escherichia coli B21 Gold DE3 cells complex formation using FITC-casein as substrate incubated for 60 mins and measured at 20 secs time interval for 90 mins by fluorescence assay
[2] = target: ATP-dependent Clp protease proteolytic subunit, mitochondrial (Homo sapiens, UniProt Q16740); assay: Inhibition of human ClpP expressed in Escherichia coli SG1146 cells using N-acetyl-Trp-Leu-Ala-AMC as substrate incubated for 1 hr and measured at 20 secs time interval for 90 mins by fluorescence assay
Chain of ATP-dependent Clp protease proteolytic subunit, mitochondrial (Q16740 whole entry): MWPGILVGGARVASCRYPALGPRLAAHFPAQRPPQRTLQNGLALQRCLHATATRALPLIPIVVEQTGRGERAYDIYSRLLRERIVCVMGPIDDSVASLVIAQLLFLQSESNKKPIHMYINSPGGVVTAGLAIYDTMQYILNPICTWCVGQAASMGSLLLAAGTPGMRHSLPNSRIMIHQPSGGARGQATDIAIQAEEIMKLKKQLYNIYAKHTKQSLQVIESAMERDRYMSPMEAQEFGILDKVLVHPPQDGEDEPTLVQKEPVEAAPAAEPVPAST

| IC50 [1] | IC50 [2] | IC50 ([2]; read-out: IC50) | SMILES |
| --- | --- | --- | --- |
| 900 nM |  |  | CC(C)C[C@H](NC(=O)[C@H](CC(C)C)NC(=O)c1ccccc1-c1ccccc1)B(O)O |
|  | Not Active |  | CC(C)CC(NC(=O)C(CC(C)C)NC(=O)C1(c2ccccc2)CC1)B(O)O (stereo unspecified) |
| 1000 nM |  |  | CC(C)C[C@H](NC(=O)[C@H](CC(C)C)NC(=O)c1ccc(F)c([N+](=O)[O-])c1)B(O)O |
|  | Not Active | 118000 nM | COc1ccc(C(=O)NC(CC(C)C)C(=O)NC(Cc2ccccc2)B(O)O)c(Cl)c1 (stereo unspecified) |
| 800 nM |  |  | COc1ccc(C(=O)N[C@@H](CC(C)C)C(=O)N[C@@H](CC(C)C)B(O)O)c(Cl)c1 |

— ChEMBL document CHEMBL4304762, “De Novo Design of Boron-Based Peptidomimetics as Potent Inhibitors of Human ClpP in the Presence of Human ClpX” (J Med Chem, 2019)
